Measurements as given in PubChem BioAssay AID248 (DTP/NCI, 2004).
Values joined by “and” are separate entries in the source; they are usually repeats but may differ in a detail not shown here. Equal values may be shown once. Inconclusive results and toxic doses are left out.

Test system: L1210 leukemia ip in BDF1 mice, survival T/C
Test: NCI In Vivo Anticancer Drug Screen. Data for tumor model L1210 Leukemia (intraperitoneal) in B6D2F1 (BDF1) mice
Settings: endpoint: mean survival time, higher = longer survival
Summary of the method: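 Mice bearing the transplanted tumor received compound or vehicle. Survival of the treated group was divided by that of the vehicle-treated control group to give the ratio.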

[1] = dose: 100.0 mg/kg/injection, schedule: Q01DX001 (ip), vehicle: Klucel (hydroxypropylcellulose) (HPC)
[2] = dose: 100.0 mg/kg/injection, schedule: Q01DX009 (ip), vehicle: Klucel (hydroxypropylcellulose) (HPC)
[3] = dose: 200.0 mg/kg/injection, schedule: Q01DX001 (ip), vehicle: Klucel (hydroxypropylcellulose) (HPC)
[4] = dose: 200.0 mg/kg/injection, schedule: Q01DX009 (ip), vehicle: Klucel (hydroxypropylcellulose) (HPC)
[5] = dose: 400.0 mg/kg/injection, schedule: Q01DX001 (ip), vehicle: Klucel (hydroxypropylcellulose) (HPC)
[6] = dose: 100.0 mg/kg/injection, schedule: Q04DX003 (ip), vehicle: saline
[7] = dose: 200.0 mg/kg/injection, schedule: Q04DX003 (ip), vehicle: saline
[8] = dose: 400.0 mg/kg/injection, schedule: Q04DX003 (ip), vehicle: saline
[9] = dose: 25.0 mg/kg/injection, schedule: Q01DX009 (ip), vehicle: Klucel (hydroxypropylcellulose) (HPC)
[10] = dose: 50.0 mg/kg/injection, schedule: Q01DX001 (ip), vehicle: carboxymethylcellulose (CMC)
[11] = dose: 100.0 mg/kg/injection, schedule: Q01DX001 (ip), vehicle: carboxymethylcellulose (CMC)
[12] = dose: 200.0 mg/kg/injection, schedule: Q01DX001 (ip), vehicle: carboxymethylcellulose (CMC)
[13] = dose: 400.0 mg/kg/injection, schedule: Q01DX001 (ip), vehicle: carboxymethylcellulose (CMC)
[14] = dose: 50.0 mg/kg/injection, schedule: Q01DX001 (ip), vehicle: Klucel (hydroxypropylcellulose) (HPC)
[15] = dose: 100.0 mg/kg/injection, schedule: Q04DX002 (ip), vehicle: Klucel (hydroxypropylcellulose) (HPC)
[16] = dose: 200.0 mg/kg/injection, schedule: Q04DX002 (ip), vehicle: Klucel (hydroxypropylcellulose) (HPC)
[17] = dose: 400.0 mg/kg/injection, schedule: Q04DX002 (ip), vehicle: Klucel (hydroxypropylcellulose) (HPC)
[18] = dose: 100.0 mg/kg/injection, schedule: Q04DX003 (ip), vehicle: Klucel (hydroxypropylcellulose) (HPC)
[19] = dose: 400.0 mg/kg/injection, schedule: Q04DX003 (ip), vehicle: Klucel (hydroxypropylcellulose) (HPC)
[20] = dose: 100.0 mg/kg/injection, schedule: Q01DX001 (ip), vehicle: other
[21] = dose: 200.0 mg/kg/injection, schedule: Q01DX001 (ip), vehicle: other
[22] = dose: 400.0 mg/kg/injection, schedule: Q01DX001 (ip), vehicle: other
[23] = dose: 100.0 mg/kg/injection, schedule: Q04DX003 (ip), vehicle: saline with Tween-80
[24] = dose: 200.0 mg/kg/injection, schedule: Q04DX003 (ip), vehicle: saline with Tween-80
[25] = dose: 400.0 mg/kg/injection, schedule: Q04DX003 (ip), vehicle: saline with Tween-80

SMILES: O=C1C2C=CC=CC1C=C2
- T/C (dose: 50.0 mg/kg/injection, schedule: Q01DX009 (ip), vehicle: Klucel (hydroxypropylcellulose) (HPC)): 89 % of control
- T/C [1]: 92 % of control
- T/C [2]: 112 % of control
- T/C [3]: 101 % of control
- T/C [4]: 91 % of control
- T/C [5]: 95 % of control

SMILES: CCOC(=O)c1cnc2ccc(OC)cc2c1
- T/C (dose: 50.0 mg/kg/injection, schedule: Q01DX009 (ip), vehicle: saline + alcohol): 111 % of control
- T/C (dose: 100.0 mg/kg/injection, schedule: Q01DX009 (ip), vehicle: saline + alcohol): 93 % of control
- T/C [6]: 96 % of control
- T/C (dose: 200.0 mg/kg/injection, schedule: Q01DX009 (ip), vehicle: saline + alcohol): 98 % of control
- T/C [7]: 105 % of control
- T/C (dose: 400.0 mg/kg/injection, schedule: Q01DX009 (ip), vehicle: saline + alcohol): 93 % of control
- T/C [8]: 94 % of control

SMILES: COC(=O)/C=C\C(=O)O
- T/C [6]: 88 % of control
- T/C [7]: 88 % of control

SMILES: O=C(CI)Nc1ccc(Br)cc1
- T/C (dose: 6.25 mg/kg/injection, schedule: Q01DX009 (ip), vehicle: Klucel (hydroxypropylcellulose) (HPC)): 86 % of control
- T/C (dose: 12.5 mg/kg/injection, schedule: Q01DX009 (ip), vehicle: Klucel (hydroxypropylcellulose) (HPC)): 91 % of control
- T/C [9]: 86 % of control
- T/C (dose: 35.0 mg/kg/injection, schedule: Q01DX009 (ip), vehicle: Klucel (hydroxypropylcellulose) (HPC)): 98 % of control

SMILES: Cc1cccc(NC(=O)NCCN(C)Cc2ccccc2)c1
- T/C [10]: 101 % of control
- T/C [11]: 98 % of control
- T/C [12]: 101 % of control
- T/C [13]: 104 % of control

SMILES: CC(C)C(C)/C=C\C(C)C1CCC2C3=CCC4CC(=O)CCC4(C)C3CCC21C (configuration not stated)
- T/C [14]: 88 % of control
- T/C [1]: 93 % of control
- T/C [3]: 88 % of control
- T/C [5]: 97 % of control

SMILES: O=C(Cl)C(=O)c1c[nH]c2ccccc12
- T/C [15]: 101 % of control
- T/C [16]: 101 % of control
- T/C [17]: 95 % of control

SMILES: CCC(C)C(=Nc1ccc(Cl)c(Cl)c1)N(C)C (configuration not stated)
- T/C (dose: 55.0 mg/kg/injection, schedule: Q01DX Z (ip), vehicle: methylcellulose (MC)): 102 % of control
- T/C (dose: 83.0 mg/kg/injection, schedule: Q01DX Z (ip), vehicle: methylcellulose (MC)): 96 % of control
- T/C (dose: 125.0 mg/kg/injection, schedule: Q01DX Z (ip), vehicle: methylcellulose (MC)): 104 % of control

SMILES: CCCOC(=O)C1(N)CCCC1
- T/C (dose: 16.0 mg/kg/injection, schedule: Q01DX Z (ip), vehicle: carboxymethylcellulose (CMC)): 117 % of control
- T/C (dose: 31.0 mg/kg/injection, schedule: Q01DX Z (ip), vehicle: carboxymethylcellulose (CMC)): 119 % of control
- T/C (dose: 45.0 mg/kg/injection, schedule: Q01DX Z (ip), vehicle: saline): 114 % of control
- T/C [14]: 98 % of control
- T/C (dose: 50.0 mg/kg/injection, schedule: Q04DX003 (ip), vehicle: Klucel (hydroxypropylcellulose) (HPC)): 103 % of control
- T/C (dose: 62.0 mg/kg/injection, schedule: Q01DX Z (ip), vehicle: carboxymethylcellulose (CMC)): 120 % of control
- T/C [1]: 106 % of control
- T/C (dose: 100.0 mg/kg/injection, schedule: Q01DX Z (ip), vehicle: saline): 121 % of control
- T/C [18]: 117 % of control
- T/C (dose: 148.0 mg/kg/injection, schedule: Q01DX Z (ip), vehicle: saline): 160 % of control
- T/C (dose: 150.0 mg/kg/injection, schedule: Q01DX Z (ip), vehicle: saline): 114 % of control
- T/C [3]: 117 % of control and 118 % of control
- T/C (dose: 336.0 mg/kg/injection, schedule: Q01DX Z (ip), vehicle: saline): 110 % of control
- T/C [19]: 121 % of control
- T/C (dose: 500.0 mg/kg/injection, schedule: Q01DX Z (ip), vehicle: carboxymethylcellulose (CMC)): 89 % of control
- T/C (dose: 504.0 mg/kg/injection, schedule: Q01DX Z (ip), vehicle: saline): 116 % of control

SMILES: O=C1CCCCCC/C(=N/O)CCCO1
- T/C (dose: 100.0 mg/kg/injection, schedule: Q01DX001 (ip), vehicle: saline with Tween-80): 94 % of control
- T/C (dose: 200.0 mg/kg/injection, schedule: Q01DX001 (ip), vehicle: saline with Tween-80): 97 % of control
- T/C (dose: 400.0 mg/kg/injection, schedule: Q01DX001 (ip), vehicle: saline with Tween-80): 97 % of control

SMILES: O=C(CNc1ccc2c(c1)Cc1cc(Br)ccc1-2)c1ccc(Br)cc1
- T/C [11]: 105 % of control
- T/C [12]: 111 % of control
- T/C [13]: 105 % of control

SMILES: CCCCCCCCOC(=O)c1[nH]cnc1/N=N/N(C)C1CCCCC1
- T/C [20]: 93 % of control
- T/C [21]: 96 % of control
- T/C [22]: 91 % of control

SMILES: CCCCCCCCCCCCSC(SCCCCCCCCCCCC)SCCCCCCCCCCCC
- T/C [20]: 95 % of control
- T/C [21]: 106 % of control
- T/C [22]: 95 % of control

SMILES: CCCCCCC(C)NCCOC(=O)c1ccc(N)cc1 (configuration not stated)
- T/C (dose: 38.0 mg/kg/injection, schedule: Q04DX003 (ip), vehicle: other): 104 % of control
- T/C (dose: 75.0 mg/kg/injection, schedule: Q01DX001 (ip), vehicle: other): 106 % of control and 98 % of control
- T/C (dose: 75.0 mg/kg/injection, schedule: Q01DX001 (ip), vehicle: saline): 96 % of control and 100 % of control
- T/C (dose: 75.0 mg/kg/injection, schedule: Q04DX003 (ip), vehicle: other): 104 % of control
- T/C (dose: 150.0 mg/kg/injection, schedule: Q01DX001 (ip), vehicle: other): 98 % of control and 93 % of control
- T/C (dose: 150.0 mg/kg/injection, schedule: Q01DX001 (ip), vehicle: saline): 91 % of control

SMILES: C1CN(CSCN2CCOCC2)CCO1
- T/C [6]: 106 % of control
- T/C [7]: 97 % of control
- T/C [8]: 97 % of control

SMILES: N=C(N)SCc1ccc(Cl)cc1Cl
- T/C (dose: 25.0 mg/kg/injection, schedule: Q01DX009 (ip), vehicle: saline with Tween-80): 100 % of control
- T/C (dose: 50.0 mg/kg/injection, schedule: Q01DX009 (ip), vehicle: saline with Tween-80): 96 % of control
- T/C (dose: 100.0 mg/kg/injection, schedule: Q01DX009 (ip), vehicle: saline with Tween-80): 98 % of control
- T/C [15]: 96 % of control
- T/C [16]: 89 % of control
- T/C [17]: 96 % of control

SMILES: COC(=O)Nc1cccc(OC(=O)NC(C)C)c1
- T/C [23]: 95 % of control
- T/C [24]: 93 % of control
- T/C [25]: 93 % of control

SMILES: CC(=S)Oc1cccc(C)c1
- T/C [10]: 102 % of control
- T/C [11]: 98 % of control
- T/C [12]: 96 % of control
- T/C [13]: 104 % of control

SMILES: N#Cc1cc2ccccc2nc1N
- T/C [11]: 98 % of control
- T/C [12]: 93 % of control
- T/C [13]: 98 % of control

SMILES: CC(=O)Nc1cccc(/C=C/C=C/c2ccc([N+](=O)[O-])cc2)c1
- T/C [23]: 93 % of control
- T/C [24]: 90 % of control
- T/C [25]: 90 % of control

SMILES: CC(C)(C)C1CCC(Br)C(Cl)C1 (configuration not stated)
- T/C (dose: 100.0 mg/kg/injection, schedule: Q01DX009 (ip), vehicle: saline): 98 % of control
- T/C (dose: 200.0 mg/kg/injection, schedule: Q01DX009 (ip), vehicle: saline): 105 % of control
- T/C (dose: 400.0 mg/kg/injection, schedule: Q01DX009 (ip), vehicle: saline): 100 % of control

SMILES: COC(=O)/C=C/NC(=O)c1ccccc1C(=O)OC
- T/C [2]: 98 % of control
- T/C [18]: 94 % of control
- T/C [4]: 96 % of control
- T/C (dose: 200.0 mg/kg/injection, schedule: Q04DX003 (ip), vehicle: Klucel (hydroxypropylcellulose) (HPC)): 103 % of control
- T/C (dose: 400.0 mg/kg/injection, schedule: Q01DX009 (ip), vehicle: Klucel (hydroxypropylcellulose) (HPC)): 109 % of control
- T/C [19]: 100 % of control

SMILES: CN(C)C(=O)CNc1ccc(S(=O)(=O)c2ccc(Cl)cc2)cc1
- T/C [23]: 101 % of control
- T/C [24]: 101 % of control
- T/C [25]: 95 % of control

SMILES: CCOC(=O)CCC(NC(=O)c1cc(Cl)c(N(CC)Cc2cnc3nc(N)nc(N)c3n2)c(Cl)c1)C(=O)OCC (configuration not stated)
- T/C [9]: 179 % of control
